Each compound was assayed on HCT-116 (assay: Inhibition of human colorectal cancer HCT116 cell viability). Details: not given.
Format: functional, cell-based

| IC50 | SMILES |
| --- | --- |
| 3.9 µM | O=C(CCCCC[S+]([O-])c1ccc(Cl)cc1)NO (centres undefined) |

What follows are compounds tested against Histone deacetylase (assay: Inhibition of HDAC in human leukemic CEM cells). Details: ccrf-cem.
Format: cell-based

| SMILES | IC50 |
| --- | --- |
| O=C(CCCCC[S+]([O-])c1ccccc1)NO (centres undefined) | 7.7 µM |
| O=C(/C=C/C=C/C[S+]([O-])c1ccc(Cl)cc1)NO (centres undefined) | 1.2 µM |
| O=C(/C=C/C=C/CSc1ccccc1)NO | > 25 µM |
| O=C(/C=C/C=C/C[S+]([O-])c1ccccc1)NO (centres undefined) | > 25 µM |
| O=C(CCCCCSc1ccc(Cl)cc1)NO | > 25 µM |

The remaining lines, values ahead:

| IC50 | SMILES |
| --- | --- |
| 8.6 µM | CN(C)c1ccc(Sc2cccc(/C=C/C(=O)NO)c2)cc1 |
| 9.4 µM | O=C(/C=C/C=C/CSc1ccc2ccccc2c1)NO |
| 1.6 µM | O=C(/C=C/C=C/CSc1ccc(Cl)cc1)NO |
| 5.4 µM | COc1ccc([S+]([O-])C/C=C/C=C/C(=O)NO)cc1 (centres undefined) |
| 5.3 µM | CC(/C=C/C(=O)NO)=C\C(C)Sc1ccc(N(C)C)cc1 (centres undefined) |

What follows are compounds tested on MCF7 (assay: Inhibition of human breast cancer MCF7 cell viability). Details: not given.
Format: functional, cell-based

| IC50 | SMILES |
| --- | --- |
| 6.1 µM | O=C(CCCCC[S+]([O-])c1ccc(Cl)cc1)NO (centres undefined) |

The compounds below were run on CCRF-CEM (assay: Inhibition of human leukemic CEM cell viability). Details: not given.
Format: functional, cell-based

| IC50 | SMILES |
| --- | --- |
| 3.4 µM | CN(C)c1ccc(Sc2cccc(/C=C/C(=O)NO)c2)cc1 |
| 1.7 µM | O=C(/C=C/C=C/CSc1ccc2ccccc2c1)NO |
| 1.6 µM | O=C(/C=C/C=C/CSc1ccc(Cl)cc1)NO |
| 9.6 µM | COc1ccc([S+]([O-])C/C=C/C=C/C(=O)NO)cc1 (centres undefined) |
| 7.5 µM | CC(/C=C/C(=O)NO)=C\C(C)Sc1ccc(N(C)C)cc1 (centres undefined) |

What follows are compounds tested against Histone deacetylase (assay: Inhibition of HDAC in rat liver homogenate). Details: not given.
Format: tissue-based

| SMILES | IC50 |
| --- | --- |
| O=C(CCCCCS(=O)(=O)c1ccccc1)NO | 0.04 µM |
| O=C(CCCCC[S+]([O-])c1ccccc1)NO (centres undefined) | 0.06 µM |
| O=C(CCCCCSc1ccccc1)NO | 0.12 µM |
| O=C(/C=C/C=C/C[S+]([O-])c1ccc(Cl)cc1)NO (centres undefined) | 0.4 µM |
| O=C(CCCCCSc1ccc(NS(=O)(=O)c2ccc(Cl)cc2)cc1)NO | 0.11 µM |
| O=C(/C=C/C=C/CSc1ccccc1)NO | 0.39 µM |
| O=C(/C=C/C=C/C[S+]([O-])c1ccccc1)NO (centres undefined) | 0.24 µM |
| O=C(CCCCCC[S+]([O-])c1ccc(Cl)cc1)NO (centres undefined) | 0.38 µM |
| O=C(CCCCCSc1ccc(Cl)cc1)NO | 0.26 µM |

Other lines, results leading:

| IC50 | SMILES |
| --- | --- |
| 0.16 µM | CN(C)c1ccc(Sc2cccc(/C=C/C(=O)NO)c2)cc1 |
| 0.7 µM | O=C(/C=C/C=C/CSc1ccc2ccccc2c1)NO |
| 0.18 µM | CN(C)c1ccc([S+]([O-])CCCCCC(=O)NO)cc1 (centres undefined) |
| 0.31 µM | O=C(/C=C/C=C/CSc1ccc(Cl)cc1)NO |
| > 25 µM | CN(C)c1ccc2sc(/C=C/C=C/C(=O)NO)cc2c1 |
| 0.41 µM | COc1ccc([S+]([O-])C/C=C/C=C/C(=O)NO)cc1 (centres undefined) |
| 0.34 µM | CC(/C=C/C(=O)NO)=C\C(C)Sc1ccc(N(C)C)cc1 (centres undefined) |

The compounds below were run on SUD4 (assay: Inhibition of human lymphoma SUD4 cell viability). Details: SU-DHL-4.
Format: functional, cell-based

| SMILES | IC50 |
| --- | --- |
| O=C(CCCCC[S+]([O-])c1ccc(Cl)cc1)NO (centres undefined) | 7.5 µM |
